# Tested on: MDA-MB-231 tumor xenografts
# Experiment: MDA-MB-231 cell-line derived xenograft (CDX), IP dose study
# Type: in vivo, athymic nude mice
# Conditions: for tumor growth inhibition (TGI): 5 days a week, 4 weeks
# Description: Female athymic nude (Jackson Laboratory, Bar Harbor, Maine, USA) 5–6 weeks of age were housed under complete aseptic conditions, fed autoclaved pellets and sterile water ad libitum. Following a week of acclimatization, approximately 1 × 10^6 MDA-MB-231 cells were inoculated into both flanks for MDA-MB-231 derived xenograft tumors. Tumor-bearing mice (tumor volume around 90–110 mm^3) were randomized into various treatment groups (5 mice in each group; compounds formulated in vehicle) and treated as follows: (i) vehicle control (40% β-cyclodextrin in ddH2O, IP), (ii) VNLG-152R (5 mg/kg, IP, once daily), (iii) VNLG-152 (10 mg/kg, IP, once daily) and (iv) VNLG-152 (20 mg/kg, IP, once daily) 5 days/week for 29 days. Tumors were measured twice weekly with calipers and tumor volume was calculated by the formula: […] (mm^3). Animals were also weighed weekly and monitored for general health status and signs of possible toxicity due to treatments. Mice were sacrificed after the indicated periods of treatment and tumors and organs excised. Tumors were divided and either flash frozen in liquid nitrogen or placed in 10% buffered formalin for western blot analysis, immunohistochemistry (IHC), and hematoxylin and eosin (H & E) staining. It is important to state here that the control was part of a large study with our other retinamides whose data has already been reported.
# Western blotting of tumor tissue lysates was performed according to standard protocol. Briefly, 30–50 μg protein per lysate was denatured with 2× sample buffer and resolved on 12 or 16% Tris–glycine gels by sodium dodecyl sulfate–polyacrylamide gel electrophoresis. Separated proteins were transferred onto nitrocellulose membrane by western blotting, and membrane was blocked for 1 h in blocking buffer and then incubated with specific primary antibodies (1:1000 dilution), followed by peroxidase-conjugated appropriate secondary antibody (1:3000 dilution). Finally, proteins were visualized by enhanced chemiluminescence detection and exposure to X-ray film. To confirm equal protein loading, membranes were stripped and re-probed with mouse monoclonal anti-β-actin primary antibody (Sigma).
smiles,measurement,setting,value
"CC1=C(/C=C/C(C)=C/C=C/C(C)=C/C(=O)Nc2ccc(F)cc2)C(C)(C)CCC1n1ccnc1 (racemic) [VNLG-152R, 4-(±)-(1H-imidazol-1-yl)-N-(4-fluorophenyl)-(E)-retinamide]",tumor growth inhibition (TGI),5 mg/kg/day IP,91%
same,tumor growth inhibition (TGI),10 mg/kg/day IP,97%
same,increase in the Bax/Bcl-2 ratio vs control,"20 mg/kg IP, tumor lysates",470 fold
same,tumor growth inhibition (TGI),20 mg/kg/day IP,97%
same,changes in body weights,"5, 10, 20 mg/kg IP",no significant changes in body weights were observed
same,"gross organ (liver, lung and kidney) abnormalities","5, 10, 20 mg/kg IP, H&E staining","no gross organ (liver, lung and kidney) abnormalities"
same,"expression of Mnk1, Mnk2, p-eIF4E, cyclin D1, Bcl-2, Bax and Bad in tumors","10 or 20 mg/kg IP, western blot","significant dose-dependent suppressions of Mnk1, Mnk2, p-eIF4E, cyclin D1, Bcl-2, and up-regulation of Bax and Bad"

# Reference: publication PMC6468747 (Cancers, 2019)
